We go through eight compounds from PubChem BioAssay (NCI).

Molecules are shown by their SMILES. “And” between values parts separate entries of the source, which are not always exact repeats. Equal entries are not always repeated.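 Each compound was tested at five concentrations against cells in 96-well plates for 48 hours. Abbreviation: GI50, concentration required for 50% inhibition of growth. TGI: concentration producing complete growth inhibition.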

Some test systems named below: M14 melanoma; SF-539 CNS; HOP-62 NSCLC; NCI-H226 lung; MOLT-4 leukemia; SNB-19 CNS; LOX IMVI melanoma; SN12C renal; RXF 393 renal; HOP-92 NSCLC.
Holding throughout (test): DTP human tumour cell line panel, 48 h

The GI50 is the concentration at which growth is held to half of that of the control. For orientation: TGI means the concentration at which net growth stops. For `COc1cccc(/C=C/C(=O)c2cc3c(N)c(C(=O)Nc4cccc5ccccc45)sc3nc2C)c1`, the GI50 with M14 melanoma was 1.31 µM; with SF-539 CNS, 1.17 µM; in the test on HOP-62 NSCLC it was 1.14 µM; in the test with NCI-H226 lung, 1.2 µM; in the test on MOLT-4 leukemia it was 1.46 µM; with SNB-19 CNS, 1.69 µM. Also, the GI50 with LOX IMVI melanoma is 0.826 µM; in the test on SN12C renal it was 1.14 µM; with RXF 393 renal, 0.803 µM; in the test on HOP-92 NSCLC, 0.953 µM. Besides, the TGI with M14 melanoma was 4.69 µM; with SF-539 CNS, 2.8 µM; in the test with HOP-62 NSCLC, 3.21 µM; with NCI-H226 lung it was 3.27 µM; in the test on MOLT-4 leukemia it was more than 50 µM; in the test on SNB-19 CNS, more than 50 µM. Besides, the concentration for total growth inhibition (TGI) came out at 1.69 µM with LOX IMVI melanoma, 2.98 µM in the test on SN12C renal, 1.9 µM with RXF 393 renal and 4.9 µM in the test with HOP-92 NSCLC.
Consider `CC1CCC2N(C1)CC1C3(O)CC45OC6(O)C(O)CCC4(C)C6CCC5C3(O)CC(O)C1(O)C2(C)O` (stereo not drawn), for which the TGI in the test on M14 melanoma, in the test with SF-539 CNS, in the test on HOP-62 NSCLC, in the test on NCI-H226 lung, in the test on MOLT-4 leukemia and with SNB-19 CNS was more than 100 µM throughout. The concentration for total growth inhibition (TGI) in the test with LOX IMVI melanoma, in the test with SN12C renal, in the test with RXF 393 renal and with HOP-92 NSCLC was more than 100 µM each time.
As to `CC1=C(C(=O)Nc2ccc(Cl)c(Cl)c2)C(c2ccccc2O)NC(=O)N1` (stereo not drawn), the GI50 is more than 50 µM with M14 melanoma; 43.7 µM in the test on SF-539 CNS; more than 50 µM in the test on HOP-62 NSCLC; 21.3 µM in the test with NCI-H226 lung; more than 50 µM with MOLT-4 leukemia; more than 50 µM in the test on SNB-19 CNS. Besides, the GI50 in the test on LOX IMVI melanoma is 33.4 µM; in the test with SN12C renal it was 34.6 µM; in the test with RXF 393 renal, more than 50 µM; with HOP-92 NSCLC, more than 50 µM. Moreover, the TGI with M14 melanoma, in the test on SF-539 CNS, with HOP-62 NSCLC, in the test with NCI-H226 lung, in the test with MOLT-4 leukemia and with SNB-19 CNS was more than 50 µM throughout. The TGI in the test with LOX IMVI melanoma, in the test on SN12C renal, in the test with RXF 393 renal and in the test with HOP-92 NSCLC was more than 50 µM in each case.
As for `COc1ccc(C2CCc3cc4c(cc3/C2=N/OC(C)=O)OCO4)cc1OC` (stereo not drawn), the TGI is 42.2 µM in the test on M14 melanoma; 35.7 µM in the test with SF-539 CNS; more than 100 µM with HOP-62 NSCLC; 43.3 µM in the test on NCI-H226 lung; 52 µM in the test with MOLT-4 leukemia; more than 100 µM in the test on SNB-19 CNS. Also, the total growth inhibition concentration (TGI) is 33.1 µM with LOX IMVI melanoma, more than 100 µM in the test with SN12C renal, 54 µM in the test on RXF 393 renal and 69.6 µM in the test on HOP-92 NSCLC.
On to `Nc1ccc(S(=O)(=O)Nc2cnc3c(Cl)cccc3n2)cc1`, for which the concentration for total growth inhibition (TGI) is more than 750 µM in the test with M14 melanoma; 513 µM with SF-539 CNS; 188 µM with HOP-62 NSCLC; more than 750 µM in the test on NCI-H226 lung; 565 µM in the test on MOLT-4 leukemia; 620 µM in the test on SNB-19 CNS. Also, the TGI in the test with LOX IMVI melanoma is more than 736 µM; in the test on SN12C renal, more than 750 µM; in the test on RXF 393 renal, > 31.6 µM and 460 µM; with HOP-92 NSCLC it was 544 µM. Besides, the GI50 with SF-539 CNS was more than 94.6 µM; with HOP-62 NSCLC it was 24.6 µM; in the test on NCI-H226 lung, more than 75.6 µM; in the test on MOLT-4 leukemia, 65.6 µM; in the test with SNB-19 CNS, more than 77.5 µM; in the test with LOX IMVI melanoma, more than 20.2 µM. For the same compound, the GI50 was more than 81.5 µM in the test on SN12C renal and 9.52 µM with RXF 393 renal.
For the compound `COc1cc(NC(=O)Nc2cnc(Nc3ccc(N4CCOCC4)cc3)nc2Oc2cccc(OC)c2)cc(OC)c1`, the GI50 in the test with M14 melanoma is 1.85 µM; in the test on SF-539 CNS, 0.884 µM; in the test with HOP-62 NSCLC it was 1.76 µM; in the test on NCI-H226 lung, 1.88 µM; in the test with MOLT-4 leukemia, 36.8 µM; with SNB-19 CNS, 5.73 µM. Besides, the GI50 with LOX IMVI melanoma is 1.47 µM; in the test on SN12C renal it was 1.3 µM; in the test on RXF 393 renal, 0.887 µM; in the test with HOP-92 NSCLC, 1.14 µM. The concentration for total growth inhibition (TGI) is 9.2 µM with M14 melanoma; 1.75 µM in the test with SF-539 CNS; 6.9 µM with HOP-62 NSCLC; 8.48 µM with NCI-H226 lung; more than 50 µM in the test on MOLT-4 leukemia; more than 50 µM in the test on SNB-19 CNS. For the same compound, the concentration for total growth inhibition (TGI) in the test on LOX IMVI melanoma turned out to be 5.59 µM; with SN12C renal, 3.71 µM; in the test on RXF 393 renal, 1.82 µM; in the test with HOP-92 NSCLC, 3.51 µM.
Turning to `COc1cc2cc3c4c(cc(OC)c(OC)c4c2cc1OC)CCN3C(=O)CCC(=O)NCCCN(C)C`, the TGI in the test on M14 melanoma was 32 µM; with SF-539 CNS it was 59.3 µM; with HOP-62 NSCLC, more than 100 µM; in the test with NCI-H226 lung it was more than 100 µM; with MOLT-4 leukemia it was more than 100 µM; in the test on SNB-19 CNS, more than 100 µM. In addition, the TGI in the test with LOX IMVI melanoma is 27.3 µM; with SN12C renal, more than 100 µM; with RXF 393 renal, more than 100 µM; in the test on HOP-92 NSCLC, 64.6 µM.
As to `CC1COCC(C)N1C1=C(Cl)C(=O)c2ccccc2C1=O` (stereo not drawn), the GI50 in the test on M14 melanoma is 6.53 µM; in the test on SF-539 CNS, 14.3 µM; in the test with HOP-62 NSCLC, 14 µM; in the test on NCI-H226 lung, 15.1 µM; in the test with MOLT-4 leukemia, 2.77 µM; in the test on SNB-19 CNS, 14.9 µM. The GI50 with LOX IMVI melanoma was 1.41 µM; with SN12C renal, 11.3 µM; with RXF 393 renal it was 1.9 µM; with HOP-92 NSCLC, 0.554 µM. For the same compound, the total growth inhibition concentration (TGI) with M14 melanoma was 19.5 µM; in the test with SF-539 CNS, 28.1 µM; in the test with HOP-62 NSCLC it was 27.4 µM; with NCI-H226 lung, 31.2 µM; with MOLT-4 leukemia, 7.5 µM; with SNB-19 CNS it was 28.1 µM. Also, the total growth inhibition concentration (TGI) was found to be 2.77 µM with LOX IMVI melanoma, 23.5 µM in the test on SN12C renal, 4.22 µM in the test on RXF 393 renal and 2.06 µM in the test on HOP-92 NSCLC.
